Values after ≈ are worked out from the molar mass of the structure shown.
How the values were obtained:
Assay type in all cases: cell-based
Bacillus cereus DAVIES = test: MIC by agar dilution; settings: Mueller-Hinton agar, 5% sheep blood, 18 hours, read-out: MINIMAL INHIBITORY CONCENTRATION
Description: (§1) The in vitro antibacterial activity of LL-E19020 Gamma is determined against a spectrum of gram positive and gram negative bacteria by a standard agar dilution method. Mueller-Hinton agar containing 5% sheep blood and two-fold decreasing concentrations of LL-E19020 Gamma is poured into petri dishes. The agar surfaces are inoculated with 1 to 5X10^4 colony forming units of bacteria by means of the Steers replicating device. The lowest concentration of antibiotic that inhibits growth of a bacterial strain after 18 hours incubation is recorded as the minimal inhibitory concentration for that strain.
(§2) • 1. Serial two-flow dilutions of drug are prepared in Mueller-Hinton broth in a range of 2560 µg/ml-0.15 µg/ml plus a solvent control. • 2. Two milliliters of drug dilution (10X) are added to sterile screw cap bottles to which 18 ml of Mueller-Hinton agar containing 5.6% defibrinated sheep blood is added. Final drug concentration ranges 256 µg/ml-0.015 µg/ml in agar containing 5% sheep blood. • 3. A few isolated colonies of each test organism are inoculated into 5 ml trypticase soy broth or brain heart infusion broth. The cultures are shaken at 35 °C. for 5 hours. • 4. Each culture is diluted 1:50 (10^-1.7) in Mueller-Hinton broth and applied to agar plates using a Steers replicator. Control plates should be seeded last to ensure that viable organisms are present throughout the procedure. Inoculated agar plates are allowed to stand undisturbed until the inoculum spots are completely absorbed. • 5. The plates are inverted and incubated at 35 °C. for 18 hours with CO2. • 6. The minimum inhibitory concentration (MIC) is taken as the lowest concentration of antimicrobial agent at which complete inhibition of antimicrobial agent at which complete inhibition occurs. A very fine, barely visible haze or a single colony is disregarded.

[1] = test system: Enterococcus spp. ARUM 87-41; test: MIC by agar dilution; settings: Mueller-Hinton agar, 5% sheep blood, 18 hours, read-out: MINIMAL INHIBITORY CONCENTRATION
Description: as §1, §2

[2] = test system: Enterococcus spp. CHBM 88-60; test: MIC by agar dilution; settings: Mueller-Hinton agar, 5% sheep blood, 18 hours, read-out: MINIMAL INHIBITORY CONCENTRATION
Description: as §1, §2

[3] = test system: Enterococcus spp. CMC 83-120; test: MIC by agar dilution; settings: Mueller-Hinton agar, 5% sheep blood, 18 hours, read-out: MINIMAL INHIBITORY CONCENTRATION
Description: as §1, §2

[4] = test system: Enterococcus spp. UCI 85-30; test: MIC by agar dilution; settings: Mueller-Hinton agar, 5% sheep blood, 18 hours, read-out: MINIMAL INHIBITORY CONCENTRATION
Description: as §1, §2

[5] = test system: Enterococcus spp. VGH 84-69; test: MIC by agar dilution; settings: Mueller-Hinton agar, 5% sheep blood, 18 hours, read-out: MINIMAL INHIBITORY CONCENTRATION
Description: as §1, §2

[6] = test system: Enterococcus spp. WRVA 88-33; test: MIC by agar dilution; settings: Mueller-Hinton agar, 5% sheep blood, 18 hours, read-out: MINIMAL INHIBITORY CONCENTRATION
Description: as §1, §2

[7] = test system: Escherichia coli ATCC 25922; test: MIC by agar dilution; settings: ATCC25922, Mueller-Hinton agar, 5% sheep blood, 18 hours, read-out: MINIMAL INHIBITORY CONCENTRATION
Description: as §1, §2

[8] = test system: Escherichia coli ATCC 35218; test: MIC by agar dilution; settings: ATCC35218, 18 h, read-out: MINIMAL INHIBITORY CONCENTRATION
Description: as §1, §2

[9] = test system: Klebsiella pneumoniae NEMC 87-271; test: MIC by agar dilution; settings: NEMC87271, Mueller-Hinton agar, 5% sheep blood, 18 hours, read-out: MINIMAL INHIBITORY CONCENTRATION
Description: as §1, §2

[10] = test system: Pseudomonas aeruginosa 12-4-4 (MP); test: MIC by agar dilution; settings: Mueller-Hinton agar, 5% sheep blood, 18 hours, read-out: MINIMAL INHIBITORY CONCENTRATION
Description: as §1, §2

[11] = test system: Staphylococcus aureus ATCC 25923; test: MIC by agar dilution; settings: ATCC25923, Mueller-Hinton agar, 5% sheep blood, 18 hours, read-out: MINIMAL INHIBITORY CONCENTRATION
Description: as §1, §2

[12] = test system: Staphylococcus aureus ATCC 29213; test: MIC by agar dilution; settings: ATCC29213, Mueller-Hinton agar, 5% sheep blood, 18 hours, read-out: MINIMAL INHIBITORY CONCENTRATION
Description: as §1, §2

[13] = test system: Staphylococcus aureus CMC 83-131; test: MIC by agar dilution; settings: CMC83131, Mueller-Hinton agar, 5% sheep blood, 18 hours, read-out: MINIMAL INHIBITORY CONCENTRATION
Description: as §1, §2

[14] = test system: Staphylococcus aureus IVES 160; test: MIC by agar dilution; settings: IVES160, Mueller-Hinton agar, 5% sheep blood, 18 hours, read-out: MINIMAL INHIBITORY CONCENTRATION
Description: as §1, §2

[15] = test system: Staphylococcus aureus IVES 396; test: MIC by agar dilution; settings: IVES396, Mueller-Hinton agar, 5% sheep blood, 18 hours, read-out: MINIMAL INHIBITORY CONCENTRATION
Description: as §1, §2

[16] = test system: Staphylococcus aureus NEMC 87-69; test: MIC by agar dilution; settings: NEMC8769, Mueller-Hinton agar, 5% sheep blood, 18 hours, read-out: MINIMAL INHIBITORY CONCENTRATION
Description: as §1, §2

[17] = test system: Staphylococcus aureus ROSE (MP); test: MIC by agar dilution; settings: Mueller-Hinton agar, 5% sheep blood, 18 hours, read-out: MINIMAL INHIBITORY CONCENTRATION
Description: as §1, §2

[18] = test system: Staphylococcus aureus SMITH (MP); test: MIC by agar dilution; settings: Mueller-Hinton agar, 5% sheep blood, 18 hours, read-out: MINIMAL INHIBITORY CONCENTRATION
Description: as §1, §2

[19] = test system: Staphylococcus aureus VGH 84-47; test: MIC by agar dilution; settings: VGH8447, 18 h, read-out: MINIMAL INHIBITORY CONCENTRATION
Description: as §1, §2

[20] = test system: Staphylococcus epidermidis IVES 455; test: MIC by agar dilution; settings: IVES455, Mueller-Hinton agar, 5% sheep blood, 18 hours, read-out: MINIMAL INHIBITORY CONCENTRATION
Description: as §1, §2

[21] = test system: Staphylococcus haemolyticus AVAH 88-1; test: MIC by agar dilution; settings: AVAH881, Mueller-Hinton agar, 5% sheep blood, 18 hours, read-out: MINIMAL INHIBITORY CONCENTRATION
Description: as §1, §2

[22] = test system: Staphylococcus haemolyticus AVAH 88-3; test: MIC by agar dilution; settings: AVAH883, Mueller-Hinton agar, 5% sheep blood, 18 hours, read-out: MINIMAL INHIBITORY CONCENTRATION
Description: as §1, §2

[23] = test system: Streptococcus pneumoniae CHBM 88-75; test: MIC by agar dilution; settings: CHBM8875, Mueller-Hinton agar, 5% sheep blood, 18 hours, read-out: MINIMAL INHIBITORY CONCENTRATION
Description: as §1, §2

[24] = test system: Streptococcus pneumoniae SV-1 (MP); test: MIC by agar dilution; settings: Mueller-Hinton agar, 5% sheep blood, 18 hours, read-out: MINIMAL INHIBITORY CONCENTRATION
Description: as §1, §2

[25] = test system: Streptococcus pneumoniae TEX 85-2; test: MIC by agar dilution; settings: TEX852, Mueller-Hinton agar, 5% sheep blood, 18 hours, read-out: MINIMAL INHIBITORY CONCENTRATION
Description: as §1, §2

[26] = test system: Streptococcus pyogenes AMCH 88-84; test: MIC by agar dilution; settings: AMCH8884, Mueller-Hinton agar, 5% sheep blood, 18 hours, read-out: MINIMAL INHIBITORY CONCENTRATION
Description: as §1, §2

[27] = test system: Streptococcus pyogenes AMCH 88-86; test: MIC by agar dilution; settings: AMCH8886, Mueller-Hinton agar, 5% sheep blood, 18 hours, read-out: MINIMAL INHIBITORY CONCENTRATION
Description: as §1, §2

[28] = test system: Streptococcus pyogenes C203 (MP); test: MIC by agar dilution; settings: Mueller-Hinton agar, 5% sheep blood, 18 hours, read-out: MINIMAL INHIBITORY CONCENTRATION
Description: as §1, §2

gram negative bacteria = test: MIC by agar dilution, summary for gram-negative bacteria; settings: 18 h; text summary: no gram-negative activity
Description: as §1
as §2, with “Inoculated agar plates are allowed to stand undisturbed until the inoculum spots are completely absorbed. • 5. The plates are inverted and incubated at 35 °C. for 18 hours with CO2. • 6. The minimum inhibitory concentration (MIC) is taken as the lowest concentration of antimicrobial agent at which complete inhibition of antimicrobial agent at which complete inhibition occurs. A very fine, barely visible haze or a single colony is disregarded.” left out

[29] = test system: staphylococci and enterococci; test: MIC by agar dilution, summary for staphylococci and enterococci; settings: 18 h; text summary: poor to moderate activity vs staphylococci and enterococci
Description: as §1
as §2, with “Inoculated agar plates are allowed to stand undisturbed until the inoculum spots are completely absorbed. • 5. The plates are inverted and incubated at 35 °C. for 18 hours with CO2. • 6. The minimum inhibitory concentration (MIC) is taken as the lowest concentration of antimicrobial agent at which complete inhibition of antimicrobial agent at which complete inhibition occurs. A very fine, barely visible haze or a single colony is disregarded.” left out

C/C=C\C=C\C1OC(O)(C(COC2CC(OC)C(OC3CC(OC)C(OC4CC(OC)C(O)C(C)O4)C(C)O3)C(C)O2)C(=O)NC/C=C/C=C(\C)C(OC)C(C)C2CC(O)C(/C=C/C=C/C=C/C(=O)O)O2)C(OC(=O)Cc2ccc(O)cc2)C(O)C1(C)C (stereo not shown) [LL-E19020 Gamma]
MIC (Bacillus cereus DAVIES): 32 µg/mL (≈ 25.8 µM)
MIC [1]: 8 µg/mL (≈ 6.44 µM)
MIC [2]: 16 µg/mL (≈ 12.9 µM)
MIC [3]: 16 µg/mL (≈ 12.9 µM)
MIC [4]: 16 µg/mL (≈ 12.9 µM)
MIC [5]: 16 µg/mL (≈ 12.9 µM)
MIC [6]: 16 µg/mL (≈ 12.9 µM)
MIC [7]: > 128 µg/mL
MIC [8]: > 128 µg/mL
MIC [9]: > 128 µg/mL
MIC [10]: > 128 µg/mL
MIC [11]: > 128 µg/mL
MIC [12]: 128 µg/mL (≈ 103 µM)
MIC [13]: 64 µg/mL (≈ 51.5 µM)
MIC [14]: 32 µg/mL (≈ 25.8 µM)
MIC [15]: 64 µg/mL (≈ 51.5 µM)
MIC [16]: 32 µg/mL (≈ 25.8 µM)
MIC [17]: 32 µg/mL (≈ 25.8 µM)
MIC [18]: 128 µg/mL (≈ 103 µM)
MIC [19]: 64 µg/mL (≈ 51.5 µM)
MIC [20]: 16 µg/mL (≈ 12.9 µM)
MIC [21]: 64 µg/mL (≈ 51.5 µM)
MIC [22]: 16 µg/mL (≈ 12.9 µM)
MIC [23]: 16 µg/mL (≈ 12.9 µM)
MIC [24]: 0.12 µg/mL (≈ 0.0966 µM)
MIC [25]: 0.5 µg/mL (≈ 0.402 µM)
MIC [26]: 0.12 µg/mL (≈ 0.0966 µM)
MIC [27]: 0.5 µg/mL (≈ 0.402 µM)
MIC [28]: 0.12 µg/mL (≈ 0.0966 µM)
MIC (gram negative bacteria): > 128 µg/mL
MIC [29]: 8 to 128 µg/mL (≈ 6.44 to 103 µM)
